Test results published in patent US8637530B2, “8-(3-amino-piperidin-1-yl)-xanthines, their preparation, and their use as pharmaceuticals” (Boehringer Ingelheim International GmbH, priority 2005, dated 2014).

Tests used:
[1] = Absorption characteristics (water uptake / hygroscopic behaviour as a function of relative humidity); type: physicochemical; conditions: for change into a hydrate phase: with rising relative humidity (free base: above 50% r.h.); for hygroscopic characteristics / behaviour: absorption characteristics, FIG. 7 / FIG. 10
[2] = Humidity-dependent X-ray powder images (phase change); type: physicochemical
Experimental: The X-ray powder diagrams, with one exception, were recorded using an STOE Stadi P X-ray powder diffractometer. This diffractometer operates with CuKα1 radiation (gamma=1.5406 Angstroms) and a location-sensitive detector. The X-ray generator was operated at 40 mA and 40 kV.
The X-ray powder diagram of the monohydrate of the free base was recorded with a Bruker D8 Advance X-ray powder diffractometer on which a special air humidity cell made by MRI had been placed. The diagram was recorded at about 72% r.h. The Bruker D8 Advance operates with CuKα radiation (gamma=1.5418 Angstroms) and also a location-sensitive detector. The X-ray generator was operated at 30 mA and 40 kV.

water taken up ([1]; above 50% r.h., FIG. 4)	relative humidity up to which the anhydrous form is stable ([1]; anhydrous form, FIG. 4)	reversibility of the conversion into the monohydrate ([1]; relative humidity brought back to 50% or less)	relative humidity at which water is absorbed ([1]; FIG. 7) [% r.h.]	hygroscopic characteristics / behaviour [1]	phase change ([2]; above 80% r.h.)	phase change ([2]; humidity range from 10-90 r.h.)	SMILES	change into a hydrate phase [1]	water uptake over relative humidity ([1]; whole range of relative humidities, FIG. 10)
about 4%	up to 50%	totally reversible	–	–	–	–	CC#CCn1c(N2CCC[C@@H](N)C2)nc2c1c(=O)n(Cc1ncccc1C#N)c(=O)n2C [Example 2, 1-[(3-cyano-pyridin-2-yl)methyl]-3-methyl-7-(2-butyn-1-yl)-8-(3-(R)-amino-piperidin-1-yl)-xanthine]	changes into a monohydrate	–
–	–	–	> 80	less marked hygroscopic characteristics	no phase change	–	CC#CCn1c(N2CCC[C@@H](N)C2)nc2c1c(=O)n(Cc1ncccc1C#N)c(=O)n2C.Cl [Example 3, 1-[(3-cyano-pyridin-2-yl)methyl]-3-methyl-7-(2-butyn-1-yl)-8-[(R)-3-amino-piperidin-1-yl]-xanthine monohydrochloride]	no reversible change into a hydrate phase	–
–	–	–	–	unremarkable hygroscopic behaviour	–	no phase change	CC#CCn1c(N2CCC[C@@H](N)C2)nc2c1c(=O)n(Cc1ncccc1C#N)c(=O)n2C.Cl.Cl [Example 4, 1-[(3-cyano-pyridin-2-yl)methyl]-3-methyl-7-(2-butyn-1-yl)-8-[(R)-3-amino-piperidin-1-yl]-xanthine-dihydrochloride]	no reversible change into a hydrate phase	takes up a certain amount of water continuously over the whole range of relative humidities
